This is an account of results in paper PMC6222820, “Synthesis of New Triarylpyrazole Derivatives Possessing Terminal Sulfonamide Moiety and Their Inhibitory Effects on PGE2 and Nitric Oxide Productions in Lipopolysaccharide-Induced RAW 264.7 Macrophages” (Molecules : A Journal of Synthetic Chemistry and Natural …, 2018).

Molecules are shown by their SMILES. Like-named read-outs stand apart in the source and are kept apart here. A value given as a limit tells only on which side of the number the result lay.

Data set [1] relates to LPS-induced RAW 264.7 macrophages. Nature of the data set: Nitric oxide (NO) production inhibition in LPS-induced RAW 264.7 macrophages (nitrite determination). It counts as cell-based. Conditions: for inhibition at 1 µM: RAW264.7, 1 µM; for inhibition at 5 µM: RAW264.7, 5 µM; for inhibition at 10 µM: RAW264.7, 10 µM. On the procedure:
The ability of a certain molecule to inhibit the production of inflammatory mediator(s) is one of successful approach to treatment both chronic and acute inflammation.
(§1) Cell culture and sample treatment were performed as reported in the literature. The 3-(4,5-dimethylthiazol-2-yl)-2,5-diphenyltetrazolium bromide (MTT) assay for cell viability followed the procedure previously described in the literature. Nitrite determination was carried as described in the literature, and the PGE2 assay was carried as previously described.

The nature of data set [2]: MTT assay for cell viability / cytotoxicity. It counts as cell-based. The following applies: mouse, RAW 264.7 macrophages, means ± SD of three independent experiments. On the procedure:
In addition to NO inhibition, the cytotoxic activity of compounds 1a–i, 2a–i, 3a–h, and 4a–h in RAW 264.7 macrophages were measured using the 3-(4,5-dimethylthiazol-2-yl)-2,5-diphenyltetrazolium bromide (MTT) assay to check whether the effects on the production of NO was caused by nonspecific cytotoxicity.
as §1
On the technique in general: Tetrazolium assays rely on reduction of a dye to a coloured formazan, in cell work by metabolically active cells.

Setting [3] is: Mus musculus, LPS-induced RAW 264.7 macrophages.
Where [4] appears, read: Mus musculus, RAW264.7, nitric oxide production, means ± SD of three independent experiments, read-out: NO (IC50).

Molecule `COc1cccc(-c2nn(-c3ccccc3)cc2-c2ccnc(NCCNS(=O)(=O)c3ccccc3)c2)c1` [Compound 1a, N-(2-((4-(3-(3-Methoxyphenyl)-1-phenyl-1H-pyrazol-4-yl)pyridin-2-yl)amino)ethyl)benzenesulfonamide] came in with a melting point of 104 to 106 °C. For the same molecule, in data set [1] (setting [3]), the inhibition at 1 µM was found to be 17.35 ± 0.09%, the inhibition at 5 µM is 35.4 ± 1.14% and the inhibition at 10 µM was found to be 52.9 ± 3.12%. Further, the IC50 in data set [1] (setting [4]) turned out to be 9.17 ± 0.52 µM. Besides, the IC50 in data set [2] came to 245.8 ± 1.91 µM.

`COc1cccc(-c2nn(-c3ccccc3)cc2-c2ccnc(NCCNS(=O)(=O)c3ccc(Cl)cc3)c2)c1` [Compound 1c, 4-Chloro-N-(2-((4-(3-(3-methoxyphenyl)-1-phenyl-1H-pyrazol-4-yl)pyridin-2-yl)amino)ethyl)benzenesulfonamide] returned a melting point of 132 to 134 °C. In data set [1] (setting [3]), at 1 µM the inhibition was 13.27 ± 0.08%, 5 µM produced 24.76 ± 0.17% inhibition and the inhibition at 10 µM amounted to 49.9 ± 1.25%. The IC50 in data set [1] (setting [4]) is 10.1 ± 0.63 µM. Moreover, the IC50 in data set [2] is 219.39 ± 0.14 µM.

Regarding `COc1ccc(S(=O)(=O)NCCNc2cc(-c3cn(-c4ccccc4)nc3-c3cccc(OC)c3)ccn2)cc1` [Compound 1e, 4-Methoxy-N-(2-((4-(3-(3-methoxyphenyl)-1-phenyl-1H-pyrazol-4-yl)pyridin-2-yl)amino)ethyl)benzenesulfonamide], the melting point lay within 144 to 146 °C. In data set [1] (setting [3]), this molecule gave an inhibition at 1 µM of 13.52 ± 0.11%, an inhibition at 5 µM of 16.1 ± 0.09% and an inhibition at 10 µM of 41.5 ± 0.99%. Moreover, the IC50 in data set [1] (setting [4]) was found to be 13.4 ± 0.72 µM. The same molecule yielded an IC50 in data set [2] of 285 ± 4.18 µM.

`COc1cccc(-c2nn(-c3ccccc3)cc2-c2ccnc(NCCNS(=O)(=O)c3cccc(F)c3)c2)c1` [Compound 1h, 3-Fluoro-N-(2-((4-(3-(3-methoxyphenyl)-1-phenyl-1H-pyrazol-4-yl)pyridin-2-yl)amino)ethyl)benzenesulfonamide] showed a melting point of 118 to 120 °C. For the same molecule, in data set [1] (setting [3]), the inhibition at 1 µM was 11.12 ± 0.02%, the inhibition at 5 µM came to 26.2 ± 0.99% and the inhibition at 10 µM turned out to be 41.2 ± 2.15%. Moreover, in data set [1] (setting [4]), the IC50 was 12.6 ± 0.29 µM. In data set [2], this molecule registered an IC50 of 244.2 ± 2.23 µM.

In turn, `COc1cccc(-c2nn(-c3ccccc3)cc2-c2ccnc(NCCNS(=O)(=O)c3cccc4ccccc34)c2)c1` [Compound 1i, N-(2-((4-(3-(3-Methoxyphenyl)-1-phenyl-1H-pyrazol-4-yl)pyridin-2-yl)amino)ethyl)naphthalene-1-sulfonamide] had a melting point of 178 to 180 °C.

Turning to `COc1cccc(-c2nn(-c3ccccc3)cc2-c2ccnc(NCCCNS(=O)(=O)c3ccc(Br)cc3)c2)c1` [Compound 2b, 4-Bromo-N-(3-((4-(3-(3-methoxyphenyl)-1-phenyl-1H-pyrazol-4-yl)pyridin-2-yl)amino)propyl)benzenesulfonamide], the melting point is 117 to 119 °C. Further, in data set [1] (setting [3]), the inhibition at 1 µM stood at 0.01 ± 0.03%, at 5 µM the inhibition was 28.1 ± 0.66% and testing at 10 µM gave an inhibition of 52.4 ± 1.62%. Further, the IC50 in data set [1] (setting [4]) was found to be 9.5 ± 0.34 µM. In addition, the midpoint of inhibition in data set [2], the IC50, lay at 384.7 ± 1.29 µM.

`COc1cccc(-c2nn(-c3ccccc3)cc2-c2ccnc(NCCCNS(=O)(=O)c3ccc(F)cc3)c2)c1` [Compound 2d, 4-Fluoro-N-(3-((4-(3-(3-methoxyphenyl)-1-phenyl-1H-pyrazol-4-yl)pyridin-2-yl)amino)propyl)benzenesulfonamide]: the melting point lay within 92 to 94 °C. In data set [1] (setting [3]), this molecule came in with an inhibition at 1 µM of 7.81 ± 0.03%, an inhibition at 5 µM of 23 ± 0.89% and an inhibition at 10 µM of 55 ± 4.01%. Further, the IC50 in data set [1] (setting [4]) amounted to 12.4 ± 0.4 µM. Half-maximal inhibition in data set [2] (IC50) required 260.3 ± 2.24 µM.

In turn, `COc1ccc(S(=O)(=O)NCCCNc2cc(-c3cn(-c4ccccc4)nc3-c3cccc(OC)c3)ccn2)cc1` [Compound 2e, 4-Methoxy-N-(3-((4-(3-(3-methoxyphenyl)-1-phenyl-1H-pyrazol-4-yl)pyridin-2-yl)amino)propyl)benzenesulfonamide] showed a melting point of 124 to 126 °C. In data set [1] (setting [3]), this molecule had an inhibition at 1 µM of 2.02 ± 0.01%, an inhibition at 5 µM of 23.9 ± 1.12% and an inhibition at 10 µM of 50.2 ± 1.88%. Besides, the IC50 in data set [1] (setting [4]) stood at 9.96 ± 0.18 µM. This molecule also showed an IC50 in data set [2] of more than 400 µM.

Take `COc1cccc(-c2nn(-c3ccccc3)cc2-c2ccnc(NCCCNS(=O)(=O)c3ccc(C)cc3)c2)c1` [Compound 2f, N-(3-((4-(3-(3-Methoxyphenyl)-1-phenyl-1H-pyrazol-4-yl)pyridin-2-yl)amino)propyl)-4-methylbenzenesulfonamide]: the melting point lay within 94 to 96 °C. Moreover, in data set [1] (setting [3]), the inhibition at 1 µM was determined as 4.36 ± 0.04%, the inhibition at 5 µM came to 19.8 ± 0.96% and the inhibition at 10 µM is 46.3 ± 3.21%. Also, the IC50 in data set [1] (setting [4]) was determined as 9.16 ± 0.27 µM. Besides, inhibition in data set [2] was half-maximal at 323 ± 3.35 µM (IC50).

With `COc1cccc(-c2nn(-c3ccccc3)cc2-c2ccnc(NCCCNS(=O)(=O)c3ccc(C(F)(F)F)cc3)c2)c1` [Compound 2g, N-(3-((4-(3-(3-Methoxyphenyl)-1-phenyl-1H-pyrazol-4-yl)pyridin-2-yl)amino)propyl)-4-(trifluoromethyl)benzenesulfonamide], in data set [1] (setting [3]), the inhibition at 1 µM turned out to be 2.91 ± 0.02%, the inhibition at 5 µM was determined as 26.3 ± 1.01% and the inhibition at 10 µM was found to be 56 ± 0.89%. Moreover, the IC50 in data set [1] (setting [4]) is 10.5 ± 0.44 µM. Besides, in data set [2], 252.6 ± 1.87 µM corresponded to half-maximal inhibition (IC50).

In data set [1] (setting [3]), `COc1cccc(-c2nn(-c3ccccc3)cc2-c2ccnc(NCCCNS(=O)(=O)c3cccc(F)c3)c2)c1` [Compound 2h, 3-Fluoro-N-(3-((4-(3-(3-methoxyphenyl)-1-phenyl-1H-pyrazol-4-yl)pyridin-2-yl)amino)propyl)benzenesulfonamide] displayed an inhibition at 1 µM of 4.87 ± 0.05%, an inhibition at 5 µM of 24.1 ± 0.91% and an inhibition at 10 µM of 41.5 ± 1.12%. Moreover, the IC50 in data set [1] (setting [4]) amounted to 9.19 ± 0.25 µM. Moreover, the IC50 in data set [2] worked out at 246 ± 2.71 µM.

As to `COc1cccc(-c2nn(-c3ccccc3)cc2-c2ccnc(NCCCNS(=O)(=O)c3cccc4ccccc34)c2)c1` [Compound 2i, N-(3-((4-(3-(3-Methoxyphenyl)-1-phenyl-1H-pyrazol-4-yl)pyridin-2-yl)amino)propyl)naphthalene-1-sulfonamide], the melting point was in the range of 134 to 136 °C.

Molecule `O=S(=O)(NCCNc1cc(-c2cn(-c3ccccc3)nc2-c2cccc(O)c2)ccn1)c1ccccc1` [Compound 3a, N-(2-((4-(3-(3-Hydroxyphenyl)-1-phenyl-1H-pyrazol-4-yl)pyridin-2-yl)amino)ethyl)benzenesulfonamide] gave a melting point of 100 to 102 °C. For the same molecule, in data set [1] (setting [3]), the inhibition at 1 µM amounted to 4.78 ± 0.03%, 5 µM produced 21.5 ± 0.37% inhibition and testing at 10 µM gave an inhibition of 49 ± 1.1%. In addition, the IC50 in data set [1] (setting [4]) was found to be 10.3 ± 0.23 µM. This molecule gave an IC50 in data set [2] of 29.8 ± 1.91 µM.

In data set [1] (setting [3]), `O=S(=O)(NCCNc1cc(-c2cn(-c3ccccc3)nc2-c2cccc(O)c2)ccn1)c1ccc(C(F)(F)F)cc1` [Compound 3f, N-(2-((4-(3-(3-Hydroxyphenyl)-1-phenyl-1H-pyrazol-4-yl)pyridin-2-yl)amino)ethyl)-4-(trifluoromethyl)benzenesulfonamide] gave an inhibition at 1 µM of 6.08 ± 0.07%, an inhibition at 5 µM of 15.2 ± 0.91% and an inhibition at 10 µM of 36.5 ± 0.59%. Besides, the half-maximal inhibitory concentration (IC50) in data set [1] (setting [4]) is 22.2 ± 0.31 µM.

Regarding `O=S(=O)(NCCNc1cc(-c2cn(-c3ccccc3)nc2-c2cccc(O)c2)ccn1)c1cccc2ccccc12` [Compound 3h, N-(2-((4-(3-(3-Hydroxyphenyl)-1-phenyl-1H-pyrazol-4-yl)pyridin-2-yl)amino)ethyl)naphthalene-1-sulfonamide], the melting point was 146 to 148 °C.

Consider `O=S(=O)(NCCCNc1cc(-c2cn(-c3ccccc3)nc2-c2cccc(O)c2)ccn1)c1ccc(Br)cc1` [Compound 4b, 4-Bromo-N-(3-((4-(3-(3-hydroxyphenyl)-1-phenyl-1H-pyrazol-4-yl)pyridin-2-yl)amino)propyl)benzenesulfonamide], for which, in data set [1] (10 µM, LPS-induced RAW 264.7 macrophages), the “Nitric Oxide % Inhibition” value was 63.82 ± 2.14%. In data set [1] (setting [3]), the inhibition at 1 µM is 8.19 ± 0.06%, the inhibition at 5 µM stood at 22.2 ± 0.72% and the inhibition at 10 µM is 63.9%. Also, in data set [1] (setting [4]), the IC50 stood at 8.34 ± 0.11 µM. In data set [2], this molecule yielded an IC50 of 19.5 ± 0.49 µM.

In the case of `O=S(=O)(NCCCNc1cc(-c2cn(-c3ccccc3)nc2-c2cccc(O)c2)ccn1)c1ccc(F)cc1` [Compound 4d, 4-Fluoro-N-(3-((4-(3-(3-hydroxyphenyl)-1-phenyl-1H-pyrazol-4-yl)pyridin-2-yl)amino)propyl)benzenesulfonamide], in data set [1] (setting [3]), at 1 µM the inhibition was 9.02 ± 0.03%, at 5 µM the inhibition was 20.8 ± 0.36% and the inhibition at 10 µM came out at 48.5 ± 1.79%. For the same molecule, the IC50 in data set [1] (setting [4]) was 11.3 ± 0.16 µM. Further, 12.6 ± 0.22 µM corresponded to half-maximal inhibition in data set [2] (IC50).

Regarding `O=S(=O)(NCCCNc1cc(-c2cn(-c3ccccc3)nc2-c2cccc(O)c2)ccn1)c1ccc(C(F)(F)F)cc1` [Compound 4f, N-(3-((4-(3-(3-Hydroxyphenyl)-1-phenyl-1H-pyrazol-4-yl)pyridin-2-yl)amino)propyl)-4-(trifluoromethyl)benzenesulfonamide], in data set [1] (setting [3]), the inhibition at 1 µM stood at 4.87 ± 0.14%, the inhibition at 5 µM was 18.9 ± 1.02% and 10 µM produced 53.8 ± 1.87% inhibition. In data set [1] (setting [4]), the IC50 is 9.45 ± 0.15 µM. The molecule also gave an IC50 in data set [2] of 17.7 ± 0.61 µM.

With `CC(=N)NCCCC[C@H](N)C(=O)O` [L-NIL, N^6-(1-Iminoethyl)-L-lysine, reference compound], the IC50 in data set [1] (Mus musculus, RAW264.7, read-out: NO (IC50)) turned out to be 29.32 ± 0.15 µM. Moreover, the inhibition at 40 µM in data set [1] (Mus musculus, RAW264.7, read-out: Nitric Oxide % Inhibition) was 77.9 ± 4.25%.

As a reminder, the inhibition is the drop in the measured response relative to a control, in per cent. The term IC50 denotes the concentration that gives 50% inhibition. The term melting point denotes the temperature of the solid-liquid transition.
